Source: US20070010399A1, “Crop plant-compatible herbicidal compositions comprising herbicides and safeners” (priority 2005, published 2007)
Like-named read-outs stand apart in the source and are kept apart here.

Legend:
Format in all cases: in vivo
[1] = system: corn; assay: Herbicidal pre-emergence action: damage to corn
From the text: Seeds of monocotyledonous and dicotyledonous weed and crop plants are placed into sandy loam in cardboard pots and covered with soil. The herbicidal compositions according to the invention, formulated in the form of wettable powders or emulsion concentrates, are then applied as an aqueous suspension or emulsion with a water application rate of 600 to 800 l/ha (converted) in different dosages to the surface of the covering soil. After the treatment, the pots are placed in a greenhouse and kept under good growth conditions for the weeds. Optical scoring of the damage to the plants or the emergence damage is carried out after emergence of the test plants after a test period of 3 to 4 weeks, by comparison with untreated controls.
(§1) The herbicidal activity or damage is in each case stated in percent: 100% activity=the plants have died, 0% activity=like untreated control plants. The abbreviation “a.i.” means active ingredient.

[2] = system: corn
Experimental: Seeds of monocotyledonous and dicotyledonous weed and crop plants are placed into sandy loam in wood fiber pots or in plastic pots, covered with soil and cultivated in a greenhouse, including during the vegetation period outdoors outside of the greenhouse, under good growth conditions. 2-3 weeks after sowing, the test plants are treated at the one- to three-leaf stage. The herbicidal compositions according to the invention, formulated as wettable powders (WP) or liquid (EC) are, in various dosages with a water application rate of 300 l/ha (converted), with added wetting agent (0.2 to 0.3%), sprayed onto the plants and the surface of the soil. 3 to 4 weeks after the treatment of the test plants, the effect of the preparations is rated visually in comparison to untreated controls.
The abbreviation “a.i.” means active ingredient.

[3] = system: corn; settings: seed treatment, post-emergence; reduction of corn damage by seed dressing with A3 0.5 g/kg; printed in the line of the herbicide alone
[4] = system: corn; assay: Treatment of corn seed with safener, herbicide pre-emergence; settings: reduction of corn damage by seed dressing with A3 0.5 g/kg, printed in the line of the herbicide alone
Experimental: Corn seed is treated (dressed) with various amounts of a safener and then placed-in sandy loam and covered with soil. The herbicides, formulated as emulsifiable concentrates or dust, are applied using a water application rate of 300 to 800 l/ha (converted) at various dosages to the surface of the covering soil. The optical scoring of the damage to the useful plants is carried out 3 to 5 weeks after the treatment.
as §1
In Tables 3 and 4, the dosage of the herbicide (component B) is stated in gram per hectare and that of the safener (component A) is stated in gram per kilogram of seed.

[5] = pre-emergence, reduction of corn damage by adding safener A3 to the herbicide, printed in the line of the herbicide alone, spans both lines
[6] = post-emergence, reduction of corn damage by adding safener A3 to the herbicide, printed in the line of the herbicide alone, spans both lines

Question: Which results are given for `COc1nn(C(=O)NS(=O)(=O)c2ccccc2OC(F)(F)F)c(=O)n1C` [Component B1.1, flucarbazone]?
Answer: Damage reduced by [1, 5]: 78%; Damage reduced by [2, 6]: 70%; Damage reduced by [3]: 80%

Question: With `COc1cc(OC)nc(NC(=O)NS(=O)(=O)c2cc(NC=O)ccc2C(=O)N(C)C)n1` [Component B1.2, foramsulfuron] as the molecule, how does the “Damage reduced by” value ([2]; in vivo) read?
Answer: 100%

Question: With `COc1nc(C)nc(NC(=O)NS(=O)(=O)c2cc(I)ccc2C(=O)O)n1` [Component B1.3, iodosulfuron] as the molecule, how does the “Damage reduced by” value ([1]; in vivo) read?
Answer: 69%

Question: How did the “Damage reduced by” value ([1]; in vivo) turn out when `COc1cc(OC)n2nc(S(=O)(=O)Nc3c(Cl)ccc(C)c3Cl)nc2n1` [Component B1.4, metosulam] was run?
Answer: 33%

Question: For `COc1nc(C)nc(=NC(=O)NS(=O)(=O)c2ccccc2C(=O)O)[nH]1` [Component B1.5, metsulfuron], which “Damage reduced by” value [2, 6] is on record?
Answer: 80%

Question: And the “Damage reduced by” value [3]?
Answer: 80%

Question: `COc1cc(OC)nc(NC(=O)NS(=O)(=O)c2ncccc2C(=O)N(C)C)n1` [Component B1.6, nicosulfuron] was tested. Which “Damage reduced by” value [1, 5] did it give?
Answer: 67%

Question: With `COc1nc(C)nc(NC(=O)NS(=O)(=O)c2ccccc2CCC(F)(F)F)n1` [Component B1.8, prosulfuron] as the molecule, how does the “Damage reduced by” value ([1]; in vivo) read?
Answer: 67%

Question: `COc1nc(C)nc(NC(=O)NS(=O)(=O)c2ccsc2C(=O)O)n1` [Component B1.9, thifensulfuron] was tested. Which “Damage reduced by” value [1, 5] did it give?
Answer: 100%

Question: Which “Damage reduced by” value [1, 5] does the source give for `COc1nc(C)nc(N(C)C(=O)NS(=O)(=O)c2ccccc2C(=O)O)n1` [Component B1.10, tribenuron] here?
Answer: 50%

Question: And the “Damage reduced by” value [4]?
Answer: 60%

Question: What does the source list for `CCOc1nc(F)cc2nc(S(=O)(=O)Nc3c(Cl)cccc3C(=O)OC)nn12` [Component B1.11, cloransulam-methyl]?
Answer: Damage reduced by ([1]; in vivo): 43%; Damage reduced by ([2]; in vivo): 50%

Question: For `COc1cc(Cl)nc(NC(=O)NS(=O)(=O)c2ccccc2C(=O)O)n1` [Component B1.12, chlorimuron], which “Damage reduced by” value [2, 6] is on record?
Answer: 86%

Question: What about the “Damage reduced by” value [3] of the same molecule?
Answer: 71%

Question: What does the source list for `CCOc1ccccc1OS(=O)(=O)NC(=O)Nc1nc(OC)cc(OC)n1` [Component B1.13, ethoxysulfuron]?
Answer: Damage reduced by ([1]; in vivo): 50%; Damage reduced by ([2]; in vivo): 50%

Question: With `Cc1ccn2nc(S(=O)(=O)Nc3c(F)cccc3F)nc2n1` [Component B1.16, flumetsulam] as the molecule, how does the “Damage reduced by” value ([1]; in vivo) read?
Answer: 57%

Question: What about the “Damage reduced by” value ([2]; in vivo) of the same molecule?
Answer: 43%

Question: With `COc1cc(OC)nc(NC(=O)NS(=O)(=O)c2c(C(=O)O)c(Cl)nn2C)n1` [Component B1.17, halosulfuron] as the molecule, how does the “Damage reduced by” value ([2]; in vivo) read?
Answer: 100%

Question: With `COCc1cnc(C2=NC(C)(C(C)C)C(=O)N2)c(C(=O)O)c1` (stereo not drawn) [Component B1.18, imazamox] as the molecule, how does the “Damage reduced by” value [2, 6] read?
Answer: 40%

Question: For `Cc1cnc(C2=NC(=O)C(C)(C(C)C)N2)c(C(=O)O)c1` (stereo not drawn) [Component B1.19, imazapic], which “Damage reduced by” value ([2]; in vivo) is on record?
Answer: 33%

Question: `CCc1cnc(C2=NC(C)(C(C)C)C(=O)N2)c(C(=O)O)c1` (stereo not drawn) [Component B1.21, imazethapyr] was tested. Which “Damage reduced by” value ([2]; in vivo) did it give?
Answer: 71%

Question: Which “Damage reduced by” value [1, 5] does the source give for `COc1cc(OC)nc(NC(=O)NS(=O)(=O)c2cc(CNS(C)(=O)=O)ccc2C(=O)O)n1` [Component B1.22, mesosulfuron] here?
Answer: 56%

Question: How did the “Damage reduced by” value [3] turn out when `CCCOc1nn(C(=O)[N-]S(=O)(=O)c2ccccc2C(=O)OC)c(=O)n1C.[Na+]` [Component B1.23, propoxycarbazone] was run?
Answer: 68%

Question: With `COc1cc(OC)nc(NC(=O)NS(=O)(=O)N(C)S(C)(=O)=O)n1` [Component B1.25, amidosulfuron] as the molecule, how does the “Damage reduced by” value ([2]; in vivo) read?
Answer: 80%

Question: Which “Damage reduced by” value ([2]; in vivo) does the source give for `COc1nc(C)nc(NC(=O)NS(=O)(=O)c2ccccc2Cl)n1` [Component B1.26, chlorsulfuron] here?
Answer: 86%

Question: With `COc1nc(C)nc(NC(=O)NS(=O)(=O)c2ccccc2OCCCl)n1` [Component B1.28, triasulfuron] as the molecule, how does the “Damage reduced by” value ([1]; in vivo) read?
Answer: 71%

Question: For `COc1cc(OC)nc(NC(=O)NS(=O)(=O)c2nc(C(F)(F)F)ccc2C(=O)O)n1` [Component B1.31, flupyrsulfuron], which “Damage reduced by” value [2, 6] is on record?
Answer: 75%

Question: What about the “Damage reduced by” value [3] of the same molecule?
Answer: 75%

Question: `COc1cc(OC)nc(NC(=O)NS(=O)(=O)c2c(C(=O)O)cnn2C)n1` [Component B1.32, pyrazosulfuron] was tested. Which “Damage reduced by” value [1, 5] did it give?
Answer: 38%

Question: For `CCS(=O)(=O)c1cccnc1S(=O)(=O)NC(=O)Nc1nc(OC)cc(OC)n1` [Component B1.36, rimsulfuron], which “Damage reduced by” value ([2]; in vivo) is on record?
Answer: 100%

Question: Which “Damage reduced by” value [2, 6] does the source give for `CS(=O)(=O)c1ccc(C(=O)C2C(=O)CCCC2=O)c(Cl)c1` [Component B2.1, sulcotrione] here?
Answer: 77%

Question: For `CS(=O)(=O)c1ccc(C(=O)C2C(=O)CCCC2=O)c([N+](=O)[O-])c1` [Component B2.3, mesotrione], which “Damage reduced by” value [2, 6] is on record?
Answer: 83%

Question: Which “Damage reduced by” value [2, 6] does the source give for `Cc1c(C(=O)c2cnn(C)c2O)ccc(S(C)(=O)=O)c1C1=NOCC1` [Component B2.4, topramezone] here?
Answer: 64%

Question: With `CSc1nnc(C(C)(C)C)c(=O)n1N` [Component B3.1, metribuzin] as the molecule, how does the “Damage reduced by” value [1, 5] read?
Answer: 50%

Question: Which “Damage reduced by” value [2, 6] does the source give for `CCCN(CCC)C(=O)SCC` [Component B4.1, EPTC] here?
Answer: 62%

Question: `CCc1cccc(C)c1N(C(=O)CCl)[C@@H](C)COC` [Component B5.2, S-metolachlor] was tested. Which “Damage reduced by” value [1, 5] did it give?
Answer: 78%

Question: How did the “Damage reduced by” value ([2]; in vivo) turn out when `COc1c(Cl)ccc(Cl)c1C(=O)O` [Component B7.1, dicamba] was run?
Answer: 100%

Question: For `CCC(CC)Nc1c([N+](=O)[O-])cc(C)c(C)c1[N+](=O)[O-]` [Component B10.1, pendimethalin], which “Damage reduced by” value [1, 5] is on record?
Answer: 54%
